According to patent US20250195659A1, “T CELL MANUFACTURING COMPOSITIONS AND METHODS” (BIONTECH US INC., priority 2021, published 2025):

Test system: antigen specific CD8^+ T cells
Assay: IL-21 addition to NEO-STIM.RNA cultures
Assay type: cell-based, human
Excerpt: In order to improve the NEO-STIM protocol using RNA, IL-21 was explored as an addition to the protocol.

IL-21: cytokine added to the NEO-STIM RNA protocol
hit rate, neoantigen specific frequency and cell expansion (NEO-PTC-01.RNA, healthy donor, day 14 read-out): increased hit rate, neoantigen specific frequency and cell expansion
central memory phenotype in antigen specific CD8^+ T cells (NEO-STIM): increases central memory phenotype in antigen specific CD8^+ T cells
Tcm population (NEO-STIM.RNA): increases Tcm population in our NEO-STIM.RNA cultures
expansion of cultures (NEO-STIM.RNA): improves the expansion of NEO-STIM.RNA cultures
priming of specific T cells (NEO-STIM.RNA): improves the priming of specific T cells in NEO-STIM.RNA cultures
